Assay results from PubChem BioAssay (NCI).
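Cultured in 96-well plates, cells were exposed to test compound for 48 hours across five concentrations. GI50 marks 50% less growth. At the TGI there is no net growth.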

What was measured:
Assay in all cases: NCI anticancer screen, dose series, 48 h
786-0 renal = system: 786-0 renal
A498 renal = system: A498 renal
A549 NSCLC = system: A549 NSCLC
ACHN renal = system: ACHN renal
BT-549 breast = system: BT-549 breast
CAKI-1 renal = system: CAKI-1 renal
CCRF-CEM leukemia = system: CCRF-CEM leukemia
COLO 205 colon = system: COLO 205 colon
DU-145 prostate = system: DU-145 prostate
EKVX NSCLC = system: EKVX NSCLC
HCC-2998 colon = system: HCC-2998 colon
HCT-116 colon = system: HCT-116 colon
HCT-15 colon = system: HCT-15 colon
HL-60(TB) leukemia = system: HL-60(TB) leukemia
HOP-62 NSCLC = system: HOP-62 NSCLC
HOP-92 NSCLC = system: HOP-92 NSCLC
HS 578T breast = system: HS 578T breast
HT29 colon = system: HT29 colon
IGROV1 ovarian = system: IGROV1 ovarian
K-562 leukemia = system: K-562 leukemia
KM12 colon = system: KM12 colon
LOX IMVI melanoma = system: LOX IMVI melanoma
M14 melanoma = system: M14 melanoma
MCF7 breast = system: MCF7 breast
MDA-MB-231 breast = system: MDA-MB-231 breast
MOLT-4 leukemia = system: MOLT-4 leukemia
NCI-H226 lung = system: NCI-H226 lung
NCI-H23 lung = system: NCI-H23 lung
NCI-H460 lung = system: NCI-H460 lung
NCI-H522 lung = system: NCI-H522 lung
NCI/ADR-RES ovarian = system: NCI/ADR-RES ovarian
OVCAR-3 ovarian = system: OVCAR-3 ovarian
OVCAR-4 ovarian = system: OVCAR-4 ovarian
OVCAR-5 ovarian = system: OVCAR-5 ovarian
OVCAR-8 ovarian = system: OVCAR-8 ovarian
RPMI-8226 leukemia = system: RPMI-8226 leukemia
RXF 393 renal = system: RXF 393 renal
SF-268 CNS = system: SF-268 CNS
SF-295 CNS = system: SF-295 CNS
SF-539 CNS = system: SF-539 CNS
SK-MEL-2 melanoma = system: SK-MEL-2 melanoma
SK-MEL-28 melanoma = system: SK-MEL-28 melanoma
SK-MEL-5 melanoma = system: SK-MEL-5 melanoma
SK-OV-3 ovarian = system: SK-OV-3 ovarian
SN12C renal = system: SN12C renal
SNB-19 CNS = system: SNB-19 CNS
SNB-75 CNS = system: SNB-75 CNS
SR leukemia = system: SR leukemia
SW-620 colon = system: SW-620 colon
T-47D breast = system: T-47D breast
U251 CNS = system: U251 CNS
UACC-257 melanoma = system: UACC-257 melanoma
UACC-62 melanoma = system: UACC-62 melanoma
UO-31 renal = system: UO-31 renal

`COc1cc(/C=C/C(=O)c2cc(OC)c(OC)c(OC)c2)ccc1Oc1nc2c(c(=O)n(C)c(=O)n2C)n1C` was tested, and the GI50 (786-0 renal) was 1.63 µM, the TGI (786-0 renal) was 3.26 µM and the GI50 (A498 renal) was 2.51 µM. The TGI (A498 renal) was 10.2 µM, the GI50 (A549 NSCLC) was 2.2 µM and the TGI (A549 NSCLC) was 6.52 µM. For the same compound, the GI50 (ACHN renal) was 2.93 µM, the TGI (ACHN renal) was 8.06 µM and the GI50 (BT-549 breast) was 1.56 µM. It also gave a TGI (BT-549 breast) of 3.02 µM, a GI50 (CAKI-1 renal) of 2.22 µM and a TGI (CAKI-1 renal) of 7.92 µM. The GI50 (CCRF-CEM leukemia) was 1.97 µM, the TGI (CCRF-CEM leukemia) was 6.48 µM and the GI50 (COLO 205 colon) was 1.91 µM. It also gave a TGI (COLO 205 colon) of 3.62 µM, a GI50 (DU-145 prostate) of 3.92 µM and a TGI (DU-145 prostate) of 15.5 µM. For the same compound, the GI50 (EKVX NSCLC) was 26.5 µM, the TGI (EKVX NSCLC) was > 100 µM and the GI50 (HCC-2998 colon) was 1.84 µM. It also gave a TGI (HCC-2998 colon) of 3.35 µM, a GI50 (HCT-116 colon) of 0.684 µM and a TGI (HCT-116 colon) of 2.06 µM. The GI50 (HCT-15 colon) was 2.56 µM, the TGI (HCT-15 colon) was > 100 µM and the GI50 (HL-60(TB) leukemia) was 2.17 µM. It also gave a TGI (HL-60(TB) leukemia) of 5.32 µM, a GI50 (HOP-62 NSCLC) of 2.63 µM and a TGI (HOP-62 NSCLC) of 5.89 µM. The GI50 (HOP-92 NSCLC) was 2.09 µM, the TGI (HOP-92 NSCLC) was 5.84 µM and the GI50 (HS 578T breast) was 7.93 µM. The TGI (HS 578T breast) was > 100 µM, the GI50 (HT29 colon) was 1.87 µM and the TGI (HT29 colon) was 3.9 µM. The GI50 (IGROV1 ovarian) was 2.5 µM, the TGI (IGROV1 ovarian) was 5.35 µM and the GI50 (K-562 leukemia) was 2.29 µM. It also gave a TGI (K-562 leukemia) of 8.23 µM, a GI50 (KM12 colon) of 1.62 µM and a TGI (KM12 colon) of 3.16 µM. For the same compound, the GI50 (LOX IMVI melanoma) was 1.14 µM, the TGI (LOX IMVI melanoma) was 2.64 µM and the GI50 (M14 melanoma) was 1.87 µM. For the same compound, the TGI (M14 melanoma) was 4.55 µM, the GI50 (MCF7 breast) was 2.2 µM and the TGI (MCF7 breast) was 27.6 µM. It also gave a GI50 (MDA-MB-231 breast) of 2.55 µM, a TGI (MDA-MB-231 breast) of 20.3 µM and a GI50 (MOLT-4 leukemia) of 2.29 µM. It also gave a TGI (MOLT-4 leukemia) of 6.34 µM, a GI50 (NCI-H226 lung) of 2.98 µM and a TGI (NCI-H226 lung) of 8.43 µM. The GI50 (NCI-H23 lung) was 1.85 µM, the TGI (NCI-H23 lung) was 4.27 µM and the GI50 (NCI-H460 lung) was 2.24 µM. The TGI (NCI-H460 lung) was 6.37 µM, the GI50 (NCI-H522 lung) was 1.43 µM and the TGI (NCI-H522 lung) was 2.81 µM. For the same compound, the GI50 (NCI/ADR-RES ovarian) was 2.96 µM, the TGI (NCI/ADR-RES ovarian) was > 100 µM and the GI50 (OVCAR-3 ovarian) was 2.37 µM. For the same compound, the TGI (OVCAR-3 ovarian) was 4.88 µM, the GI50 (OVCAR-4 ovarian) was 2.49 µM and the TGI (OVCAR-4 ovarian) was > 100 µM. It also gave a GI50 (OVCAR-5 ovarian) of 2.9 µM, a TGI (OVCAR-5 ovarian) of 7.41 µM and a GI50 (OVCAR-8 ovarian) of 1.73 µM. It also gave a TGI (OVCAR-8 ovarian) of 5.2 µM, a GI50 (RPMI-8226 leukemia) of 1.2 µM and a TGI (RPMI-8226 leukemia) of 4.91 µM. It also gave a GI50 (RXF 393 renal) of 2.03 µM, a TGI (RXF 393 renal) of 3.65 µM and a GI50 (SF-268 CNS) of 3.29 µM. The TGI (SF-268 CNS) was 10.2 µM, the GI50 (SF-295 CNS) was 2.65 µM and the TGI (SF-295 CNS) was 13 µM. It also gave a GI50 (SF-539 CNS) of 2.73 µM, a TGI (SF-539 CNS) of 7.74 µM and a GI50 (SK-MEL-2 melanoma) of 3.35 µM. For the same compound, the TGI (SK-MEL-2 melanoma) was 7.78 µM, the GI50 (SK-MEL-28 melanoma) was 2.57 µM and the TGI (SK-MEL-28 melanoma) was 7.03 µM. It also gave a GI50 (SK-MEL-5 melanoma) of 1.75 µM, a TGI (SK-MEL-5 melanoma) of 3.33 µM and a GI50 (SK-OV-3 ovarian) of 3.73 µM. For the same compound, the TGI (SK-OV-3 ovarian) was 35.5 µM, the GI50 (SN12C renal) was 2.24 µM and the TGI (SN12C renal) was 7.79 µM. For the same compound, the GI50 (SNB-19 CNS) was 2.71 µM, the TGI (SNB-19 CNS) was 13.5 µM and the GI50 (SNB-75 CNS) was 1.77 µM. The TGI (SNB-75 CNS) was 7.81 µM, the GI50 (SR leukemia) was 1.21 µM and the TGI (SR leukemia) was 4.89 µM. For the same compound, the GI50 (SW-620 colon) was 1.6 µM, the TGI (SW-620 colon) was 3.46 µM and the GI50 (T-47D breast) was 4.39 µM. It also gave a TGI (T-47D breast) of 65.4 µM, a GI50 (U251 CNS) of 1.28 µM and a TGI (U251 CNS) of 2.6 µM. The GI50 (UACC-257 melanoma) was 2.05 µM, the TGI (UACC-257 melanoma) was 4.63 µM and the GI50 (UACC-62 melanoma) was 1.81 µM. The TGI (UACC-62 melanoma) was 3.61 µM, the GI50 (UO-31 renal) was 1.6 µM and the TGI (UO-31 renal) was 3.1 µM.
